Reference: paper PMC8424217 (The Journal of Biological Chemistry, 2021)
Like-named read-outs stand apart in the source and are kept apart here. Peptide text beside a SMILES is read from it. * marks the point of attachment. Palmitoyl = CCCCCCCCCCCCCCCC(=O)*

What was measured:
CHO-K1 cells = assay: IP1 production, IP-One terbium immunoassay, untransfected CHO-K1 cells; assay type: cell-based; conditions: CHO-K1, 40 min incubation
Method: This assay, performed with the IP-One terbium immunoassay kits from Cisbio, was used according to the manufacturer recommendation and as previously described ([43]). Briefly, CHO-hUT cells were grown in 10-cm dishes for 24 h. The cells were then starved without serum. The next day, cells were washed once with PBS and collected in PBS containing 20 mM EDTA. For the assay, 80,000 cells per well (96-well plate) were used. […] IP1-d2 and anti-IP1-cryptate were added for an additional 2 h at room temperature. Plates were read on a Flexstation 3 microplate reader.
[Trp1, Leu2]hUT-Pep3. IP1 production was evaluated using the IP-One terbium immunoassay
kitsinCHO-K1 cells.Each histogram represents the mean ± SEM of atleast threeindependent
experiments performed in triplicate.
(also on this page, place not known: (% Maximal Response) FigureS3.IP1productioninCHO-K1cellsfollowingtreatmentbyhUII,hUT-Pep2or [Trp1,Leu2]hUT-Pep3.IP1productionwasevaluatedusingtheIP-Oneterbiumimmunoassay kitsinCHO-K1cells.Eachhistogramrepresentsthemean±SEMofatleastthreeindependent experimentsperformedintriplicate.)

HEK 293 cells = assay: EGFR transactivation (EGFR-GFP internalization, confocal microscopy), untransfected/mock HEK 293 cells; assay type: cell-based; conditions: HEK 293, 30 min
Method: Figure 7 UT-pepducins-mediated transactivation of EGFR following hUT activation. […] EGFR internalization, following hUT stimulation with various ligands for 30 min, was visualized using confocal microscopy. The images shown are from representative experiments repeated at least three times.
HEK 293 and HEK 293-hUT cells, transiently transfected with cDNA encoding fluorescently labeled EGFR (EGFR-GFP) (2 μg), were plated onto 35-mm glass-bottomed culture dishes (MatTek Corp). Following stimulation, cells were washed once with PBS and fixed in 4% paraformaldehyde for 15 min. To study the involvement of Gq in EGFR internalization, cells were treated with YM254890 (100 nM) for 1h prior peptide treatments. […] EGFR-GFP internalization was visualized using a combination of excitation (488 nm) and emission filters (499 and 520 nm). […]
endogenously expressed hUT activation in untransfected HEK 293 cells.HEK 293 expressing low level of wild type hUT and transfected […]
using confocal microscopy. The image shown are from representative experiments repeated at least three times. Arrows indicate cellular aggregates representing EGFR internalization.
(1 picture or pasted object on this page, not shown here)

hUT = target: T1, hUT (Homo sapiens, UniProt Q9UKP6); assay: G12 activation, BRET biosensor, HEK 293-hUT cells; assay type: cell-based; parameters: expressed in transfected cells
T1 sequence (Q9UKP6 1-389): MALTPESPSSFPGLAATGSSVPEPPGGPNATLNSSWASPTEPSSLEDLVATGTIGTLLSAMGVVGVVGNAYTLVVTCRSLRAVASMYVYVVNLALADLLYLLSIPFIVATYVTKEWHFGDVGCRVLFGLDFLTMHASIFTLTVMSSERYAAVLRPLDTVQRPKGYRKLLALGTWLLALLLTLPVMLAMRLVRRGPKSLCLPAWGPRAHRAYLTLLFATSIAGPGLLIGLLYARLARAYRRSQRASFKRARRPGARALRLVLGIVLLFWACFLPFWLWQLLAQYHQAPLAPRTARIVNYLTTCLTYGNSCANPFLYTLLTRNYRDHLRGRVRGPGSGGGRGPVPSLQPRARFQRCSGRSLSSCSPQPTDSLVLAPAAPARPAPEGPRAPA
Method: Figure 6 Signaling signature of hUT-pepducins following hUT receptor activation. […] Each curve represents mean ± SEM of at least three independent concentration-response experiments performed in triplicate.
HEK 293-hUT cells were grown in DMEM culture media supplemented with 10% foetal bovine serum, HEPES, sodium pyruvate, and G418 (200 μg mL^−1). Passages were performed when cells reached 80% of confluency. Cells were initially plated in 96-well plates at a density of 10,000 cells/well. […] Then, to evaluate Gq and G12 activation, 10 μl of a 1/20 dilution (diluted before use) of coelenterazine 400A (stock at 1 mM in ethanol) in Kreb's buffer and 10 μl of the 10× appropriate concentration of peptide were added, and the luminescence was evaluated with an Infinite M1000 PRO. […] Readings were performed after 5 min using an Infinite M1000 PRO. […] BRET ratio was determined by calculating the ratio of the light emitted by GFP10 over the light emitted by the RlucII.

Circular dichroism = assay type: physicochemical; conditions: peptide 0.2 mg mL^−1, 20 °C
Method: Circular dichroism (CD) analyses were performed in a JASCO J-815 (JAPAN Spectroscopy & Chromatography Technology) spectropolarimeter coupled to a temperature controller Peltier. Samples were dissolved at 0.2 mg mL^−1 in either water, 0.5 mg mL^−1 DPC (dodecylphophocholine), 0.1 mg mL^−1 SDS (sodium dodecyl sulfate), or TFE (2,2,2-trifluoroethanol) aqueous solutions at concentrations of 20%, 50%, and 80%. The CD spectra were recorded in the measured range of 200–250 nm using a scan speed of 50 nm min^−1, and the baseline was corrected by subtraction of the solvent spectrum. The temperature was set to 20 °C.

| SMILES | IP1 production in untransfected CHO-K1 cells (CHO-K1 cells) | EGFR internalization in untransfected/mock-transfected cells (HEK 293 cells) | Emax at 1 µM (hUT; read-out: G12 activation Emax) [%] | CD conformation in SDS (Circular dichroism; 0.1 mg mL^−1 SDS) | CD conformation in DPC (Circular dichroism; 0.5 mg mL^−1 DPC) | CD conformation in TFE (Circular dichroism; TFE 80%) | CD conformation in water (Circular dichroism; water) | Emax at 1 µM (hUT; read-out: G12 activation, maximum efficacy at 10^−6 M) [%] |
| --- | --- | --- | --- | --- | --- | --- | --- | --- |
| CCCCCCCCCCCCCCCC(=O)N[C@@H](CCCNC(=N)N)C(=O)N1CCC[C@H]1C(=O)N[C@@H](CC(C)C)C(=O)N[C@@H](CC(=O)O)C(=O)N[C@H](C(=O)N[C@H](C(=O)N[C@@H](CCC(N)=O)C(=O)N[C@@H](CCCNC(=N)N)C(=O)N1CCC[C@H]1C(=O)N[C@@H](CCCCN)C(=O)NCC(=O)N[C@@H](Cc1ccc(O)cc1)C(N)=O)C(C)C)[C@@H](C)O [hUT-Pep2] (Palmitoyl-RPLDTVQRPKGY-NH2) | not untransfected CHO-K1 cells |  |  |  |  |  |  |  |
| CC(C)[C@H](NC(=O)[C@@H]1CSSC[C@H](NC(=O)[C@H](CC(=O)O)NC(=O)[C@@H]2CCCN2C(=O)[C@@H](NC(=O)[C@@H](N)CCC(=O)O)[C@@H](C)O)C(=O)N[C@@H](Cc2ccccc2)C(=O)N[C@@H](Cc2c[nH]c3ccccc23)C(=O)N[C@@H](CCCCN)C(=O)N[C@@H](Cc2ccc(O)cc2)C(=O)N1)C(=O)O [hUII, urotensin II, reference compound] |  | limited EGFR internalization can be observed in untransfected HEK 293 cells | 98 ± 3 |  |  |  |  |  |
| CCCCCCCCCCCCCCCC(=O)N[C@@H](Cc1c[nH]c2ccccc12)C(=O)N[C@@H](CC(C)C)C(=O)N[C@@H](CO)C(=O)N[C@@H](CCC(N)=O)C(=O)N[C@@H](CCCNC(=N)N)C(=O)N[C@@H](C)C(=O)N[C@@H](CO)C(=O)N[C@@H](Cc1ccccc1)C(=O)N[C@@H](CCCCN)C(=O)N[C@@H](CCCNC(=N)N)C(=O)N[C@@H](C)C(=O)N[C@@H](CCCNC(=N)N)C(=O)N[C@@H](CCCNC(=N)N)C(N)=O [[Trp^1, Leu^2]hUT-Pep3] (Palmitoyl-WLSQRASFKRARR-NH2) | not untransfected CHO-K1 cells |  |  | β-sheet conformation (lower peak at 216 nm) | less structured α-helix conformation | fold as an α-helix (dark green, TFE 80%, lower peaks at 205 and 216 nm) | nonstructured shape (random coil) | 5 |
